26 compounds from ChEMBL document CHEMBL1140148, “Structure-activity studies on a series of a 2-aminopyrimidine-containing histamine H4 receptor ligands” (J Med Chem, 2008) can be followed below.

Data set [1] concerns the target T1, Histamine H4 receptor (Homo sapiens, UniProt Q9H3N8). In words: Agonist activity at human histamine H4 receptor expressed in HEK293 cells coexpressing Gqi5 protein assessed as calcium flux by FLIPR assay. In kind it is functional, cell-based.
Data set [2] deals with Histamine H4 receptor (Rattus norvegicus) (UniProt Q91ZY1). Briefly: (§1) Agonist activity at rat histamine H4 receptor expressed in HEK293 cells coexpressing Gqi5 protein assessed as calcium flux by FLIPR assay. The format is functional, cell-based.
Data set [3] concerns the target T1, Histamine H4 receptor. In words: Agonist activity at human histamine H4 receptor expressed in HEK293 cells coexpressing Gqi5 protein assessed as calcium flux by FLIPR assay relative to histamine. The format is functional, cell-based.
Data set [4] deals with T2, Histamine H4 receptor (Rattus norvegicus, UniProt Q91ZY1). Described as §1. In kind it is functional, cell-based.
Data set [5] deals with Histamine H4 receptor (Rattus norvegicus) (UniProt Q91ZY1). In words: Agonist activity at rat histamine H4 receptor expressed in HEK293 cells coexpressing Gqi5 protein assessed as calcium flux by FLIPR assay relative to histamine. In kind it is functional, cell-based.
Data set [6] has the same target. Particulars: HEK293.
In data set [7] the target is T1, Histamine H4 receptor. Particulars: HEK293.
Data set [8] addresses T2, Histamine H4 receptor. Briefly: Displacement of [3H]histamine from rat histamine H4 receptor expressed in HEK293 cells. In kind it is cell-based.
The target of data set [9] is Histamine H3 receptor (Homo sapiens, UniProt Q9Y5N1). Briefly: Binding affinity to human histamine H3 receptor.
The target of data set [10] is T1, Histamine H4 receptor. In words: Displacement of [3H]histamine from human histamine H4 receptor expressed in HEK293 cells. In kind it is cell-based.
Data set [11] deals with Histamine H3 receptor (Rattus norvegicus, UniProt Q9QYN8). In words: Binding affinity to rat histamine H3 receptor.
Data set [12] has as its target Histamine H4 receptor (Mus musculus, UniProt Q91ZY2). In words: Agonist activity at mouse histamine H4 receptor expressed in HEK293 cells coexpressing Gqi5 protein assessed as calcium flux by FLIPR assay. In kind it is functional, cell-based.
In another data set the test system is Brain. Briefly: Drug level in rat brain assessed as metabolism to 4-(2-amino-6-(piperazin-1-yl)pyrimidin-4-yl)benzonitrile at 30 umol/kg, ip. In kind it is ADME, organism-based. Conditions: in vivo.

T1 sequence (Q9H3N8 whole entry): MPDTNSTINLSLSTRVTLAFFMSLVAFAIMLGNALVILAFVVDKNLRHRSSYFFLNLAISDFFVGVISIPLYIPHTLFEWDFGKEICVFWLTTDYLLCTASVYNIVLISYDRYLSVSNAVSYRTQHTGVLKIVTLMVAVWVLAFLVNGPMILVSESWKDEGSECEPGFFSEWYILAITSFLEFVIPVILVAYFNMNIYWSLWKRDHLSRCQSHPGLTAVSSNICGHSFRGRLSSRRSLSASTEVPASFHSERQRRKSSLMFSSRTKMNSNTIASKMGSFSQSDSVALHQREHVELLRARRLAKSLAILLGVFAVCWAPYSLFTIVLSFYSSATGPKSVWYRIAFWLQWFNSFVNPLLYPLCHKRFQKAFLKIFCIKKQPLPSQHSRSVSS
Sequence of Histamine H4 receptor (Rattus norvegicus) (Q91ZY1 whole entry): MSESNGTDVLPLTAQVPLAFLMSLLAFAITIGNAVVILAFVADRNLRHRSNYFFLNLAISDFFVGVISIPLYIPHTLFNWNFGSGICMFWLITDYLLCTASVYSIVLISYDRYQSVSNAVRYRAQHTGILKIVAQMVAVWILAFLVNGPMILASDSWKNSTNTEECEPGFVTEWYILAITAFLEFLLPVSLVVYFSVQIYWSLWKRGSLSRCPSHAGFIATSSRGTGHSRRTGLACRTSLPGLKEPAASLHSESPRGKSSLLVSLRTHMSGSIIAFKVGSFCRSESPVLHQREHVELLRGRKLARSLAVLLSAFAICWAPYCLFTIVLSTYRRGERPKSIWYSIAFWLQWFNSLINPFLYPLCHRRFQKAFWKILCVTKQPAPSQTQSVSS
T2 sequence (Q91ZY1 whole entry): as above
Sequence of Histamine H4 receptor (Mus musculus, UniProt Q91ZY2) (Q91ZY2 whole entry): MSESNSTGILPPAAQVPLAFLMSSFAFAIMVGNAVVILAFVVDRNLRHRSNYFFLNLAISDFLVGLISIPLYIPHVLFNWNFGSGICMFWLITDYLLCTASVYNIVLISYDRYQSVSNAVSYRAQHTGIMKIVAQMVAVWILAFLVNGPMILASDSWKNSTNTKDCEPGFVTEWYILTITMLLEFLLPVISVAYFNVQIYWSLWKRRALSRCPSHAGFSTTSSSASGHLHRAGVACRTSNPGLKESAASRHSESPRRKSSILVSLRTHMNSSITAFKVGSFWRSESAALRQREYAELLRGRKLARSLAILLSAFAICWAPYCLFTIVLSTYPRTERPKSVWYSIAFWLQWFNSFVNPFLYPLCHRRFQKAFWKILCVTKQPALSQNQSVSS
Sequence of Histamine H3 receptor (Rattus norvegicus, UniProt Q9QYN8) (Q9QYN8 whole entry): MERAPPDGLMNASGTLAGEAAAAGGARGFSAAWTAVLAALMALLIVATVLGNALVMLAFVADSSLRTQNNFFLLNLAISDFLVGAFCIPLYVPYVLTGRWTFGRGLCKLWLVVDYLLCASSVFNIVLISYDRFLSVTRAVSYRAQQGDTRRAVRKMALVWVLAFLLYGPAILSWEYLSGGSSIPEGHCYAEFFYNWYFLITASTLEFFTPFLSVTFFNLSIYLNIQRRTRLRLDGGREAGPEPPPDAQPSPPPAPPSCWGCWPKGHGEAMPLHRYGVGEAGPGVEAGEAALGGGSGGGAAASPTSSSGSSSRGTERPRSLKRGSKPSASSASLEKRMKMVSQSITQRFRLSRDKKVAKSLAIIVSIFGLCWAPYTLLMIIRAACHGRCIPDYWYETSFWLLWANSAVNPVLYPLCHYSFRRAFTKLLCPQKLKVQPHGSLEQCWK
Sequence of Histamine H3 receptor (Homo sapiens, UniProt Q9Y5N1) (Q9Y5N1 whole entry): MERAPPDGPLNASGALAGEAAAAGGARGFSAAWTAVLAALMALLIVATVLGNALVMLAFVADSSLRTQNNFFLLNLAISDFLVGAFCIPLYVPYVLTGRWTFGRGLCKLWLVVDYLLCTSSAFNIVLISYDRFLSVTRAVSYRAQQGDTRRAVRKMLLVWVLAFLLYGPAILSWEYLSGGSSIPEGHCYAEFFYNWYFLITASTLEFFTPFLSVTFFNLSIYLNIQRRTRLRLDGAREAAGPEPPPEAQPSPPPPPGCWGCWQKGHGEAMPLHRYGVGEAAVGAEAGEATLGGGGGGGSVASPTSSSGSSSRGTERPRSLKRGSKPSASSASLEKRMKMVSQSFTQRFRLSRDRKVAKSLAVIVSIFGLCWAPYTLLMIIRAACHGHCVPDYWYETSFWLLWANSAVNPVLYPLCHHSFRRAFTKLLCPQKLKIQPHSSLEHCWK

Consider `CN1CCN(c2cc(-c3ccc(C#N)cc3)cc(N)n2)CC1`, for which, on Histamine H4 receptor [1], the EC50 was 2340 nM. Moreover, the pKb in data set [2] was found to be 5.39. Further, the Efficacy on Histamine H4 receptor [3] is 56%.
Regarding `CN1CCN(c2ccnc(N)n2)CC1`, the EC50 is 43.7 nM on Histamine H4 receptor [1] and 115 nM at Histamine H4 receptor [4]. Besides, the Efficacy in [5] was 87%; at Histamine H4 receptor [3] it was 42%.
The corresponding values for `COc1ncccc1-c1cc(N2CCN(C)CC2)nc(N)n1` are 26.9 nM, 93.3 nM, 72% and 32%.
`CN1CCN(c2cc(C(C)(C)C)nc(N(C)C)n2)CC1`: the values for the EC50 at Histamine H4 receptor [1] and on Histamine H4 receptor [4] were 11500 nM and 18200 nM, respectively. Moreover, the Efficacy in data set [5] worked out at 88%; on Histamine H4 receptor [3], 100%.
As for `CN1CCN(c2cc(C(C)(C)C)nc(Cl)n2)CC1`, the concentration giving a half-maximal response (EC50) was 4900 nM at Histamine H4 receptor [1] and 8710 nM on Histamine H4 receptor [4]. For the same compound, the Efficacy in [5] worked out at 75%; on Histamine H4 receptor [3], 42%.
In the case of `CN1CCN(c2cc(N(C)c3ccccc3)nc(N)n2)CC1`, the pKb in data set [6] was determined as 6.1; on Histamine H4 receptor [7], 6.96.
`CN1CCN(c2cc(-n3cnc4ccccc43)nc(N)n2)CC1`: the EC50 on Histamine H4 receptor [1] is 178 nM. Moreover, in data set [6], the pKb came to 6.46. Besides, the Efficacy at Histamine H4 receptor [3] stood at 82%.
As for `N#Cc1ccc(-c2cc(N3CCNCC3)nc(N)n2)cc1`, the Ki at Histamine H4 receptor [8] is 339 nM; on Histamine H3 receptor [9] it was 933 nM; on Histamine H4 receptor [10], 41.7 nM; on Histamine H3 receptor [11] it was 120 nM. The EC50 at Histamine H4 receptor [4] was 245 nM; at Histamine H4 receptor [12] it was 102 nM. Besides, the Efficacy in data set [5] worked out at 67%. The Drug uptake in the data set on Brain was 610 ng/mL. In addition, the pKb on Histamine H4 receptor [7] stood at 8.08.
Regarding `N#Cc1ccc(-c2cc(N3CCN(CC4CC4)CC3)nc(N)n2)cc1`, the pKb in data set [6] is 4.54; on Histamine H4 receptor [7], 5.53.
The corresponding values for `CN1CCN(c2cc(-c3cccc4ccccc34)nc(N)n2)CC1` are 7.27 and 7.81.
Regarding `CN1CCN(c2cc(-c3cccc(-c4ccccc4)c3)nc(N)n2)CC1`, the values for the pKb (in data set [6]; on Histamine H4 receptor [7]) were 6.38 and 6.85, respectively.
The corresponding values for `CN1CCN(c2cc(-c3ccccc3-c3ccccc3)nc(N)n2)CC1` are 5.72 and 6.79.
As for `CN1CCN(c2cc(-n3ccccc3=O)nc(N)n2)CC1`, the EC50 on Histamine H4 receptor [1] is 3890 nM; on Histamine H4 receptor [4], 14100 nM. In addition, the Efficacy worked out at 33% in data set [5] and 27% on Histamine H4 receptor [3].
The corresponding values for `CN1CCN(c2nc(N)ncc2N)CC1` are 33.9 nM, 42.7 nM, 88% and 38%.
With `CN1CCN(c2nc(N)nc(-c3ccc(C#N)cc3)c2-c2ccccc2)CC1`, the values for the negative-log Kb (pKb) (in [6]; on Histamine H4 receptor [7]) were 5.29 and 5.69, respectively.
Consider `CN1CCN(c2cc(-c3ccc(-c4ccccc4)cc3)nc(N)n2)CC1`, for which the pKb in data set [6] stood at 6.03; on Histamine H4 receptor [7] it was 6.29.
On the same counts, the results for `CN1CCN(c2cc(N(C)Cc3ccccc3)nc(N)n2)CC1` are 6.47 and 6.77.
On the same counts, the results for `CN1CCN(c2cc(N)cc(-c3ccc(C#N)cc3)n2)CC1` are 5.14 and 5.05.
On to `CN1CCN(c2cc(-c3c[nH]cn3)nc(N)n2)CC1`, for which the EC50 is 16.2 nM on Histamine H4 receptor [1] and 389 nM at Histamine H4 receptor [4]. Moreover, the Efficacy in [5] worked out at 77%; at Histamine H4 receptor [3], 41%.
Consider `CN1CCN(c2cc(NCc3ccccc3)nc(N)n2)CC1`, for which the EC50 at Histamine H4 receptor [1] was 64.6 nM; at Histamine H4 receptor [4] it was 490 nM. The Efficacy at Histamine H4 receptor [3] was 56%.
With `CN1CCN(c2cc(-n3ccnc3)nc(N)n2)CC1`, the EC50 at Histamine H4 receptor [1] is 2510 nM; on Histamine H4 receptor [4], 7940 nM. Further, the Efficacy in data set [5] is 56%; on Histamine H4 receptor [3] it was 31%.
For the compound `CN1CCN(c2cc(-n3cnc(-c4ccccc4)c3)nc(N)n2)CC1`, the pKb was found to be 5.74 in data set [6] and 5.68 at Histamine H4 receptor [7].
`CN1CCN(c2nc(N)ncc2-c2ccccc2)CC1`: on Histamine H4 receptor [4], the EC50 is 8320 nM. In addition, in [5], the Efficacy worked out at 72%. For the same compound, the pKb on Histamine H4 receptor [7] amounted to 5.32.
In the case of `COc1nc(N2CCN(C)CC2)cc(C(C)(C)C)n1`, the EC50 is 1200 nM on Histamine H4 receptor [1] and 4680 nM on Histamine H4 receptor [4]. Moreover, the values for the Efficacy (in [5]; on Histamine H4 receptor [3]) were 90% and 43%, respectively.
Regarding `CN1CCN(c2cc(Nc3ccccc3)nc(N)n2)CC1`, the EC50 on Histamine H4 receptor [4] was 117 nM. Further, the Efficacy in data set [5] was found to be 81%. Moreover, the pKb at Histamine H4 receptor [7] came to 8.18.
The corresponding values for `CN1CCN(c2cc(N3CCNC3=O)nc(N)n2)CC1` are 12300 nM, 27% and 5.38.
